Experimental data as given in US20040022733A1, “Conjugated lysine copolymers” (priority 2002, published 2004).

Tested on: rat mammary adenocarcinoma cells (ATCC 13762, Mat B cells)
Experiment: MR imaging on a rat tumor model (tumor enhancement)
Assay type: in vivo
Method: Imaging was done on a rat tumor model. Specifically, rat mammary adenocarcinoma cells (ATCC 13762, Mat B cells) were implanted in Fisher 344 female rats ([…] in 0.5 ml phosphate buffered saline). After 7-9 days, tumors were about 10 mm in diameter and the imaging was done at that point. Imaging was performed using a GE CSI scanner at 2T with a 33 cm bore. A birdcage quadrature coil was used for transmission and receiving. T1 weighted images were obtained (TR 250 ms, TE 18 MS, NEX 16). Rats were imaged prior to injection of contrast agent. […] The rats were then imaged immediately after injection and then at 24 hours.

O=C([O-])CN(CCN(CC(=O)[O-])CC(=O)O)CCN(CC(=O)[O-])CC(=O)O.[Gd+3] [Gd-DTPA] was tested, and the tumor enhancement (rat tumor model, standard dose of 0.1 mmol Gd/kG) was 70% and the “wash out of tumors” value (rat, in vivo) was “rapidly wash out of tumors”.
